In US10869846B2, “N-acetylcysteine amide (NAC amide) in the treatment of diseases and conditions associated with oxidative stress” (SENTIENT LIFESCIENCES, INC., priority 2005, dated 2020):
“And” between values parts separate entries of the source, which are not always exact repeats. Equal values may be shown once. Marks after values point to notes of the source that are not given here.

Tests used:
Sprague Dawley rats [1] = assay: MDA levels in tissues after 6Gy total-body x-ray radiation; type: in vivo, rat; conditions: for MDA level / MDA Mean: 6Gy total-body x-ray, 500 mg/kg orally; for MDA level: individual animals; for MDA Mean: n = 3; for lung MDA levels: treatment concurrent with irradiation, versus irradiation alone
Protocol: (§1) Animal studies: The irradiation of rats was performed at the Radiation Oncology Department of the Phelps County Regional Medical Center in Rolla, Mo., using a 16 MeV beam generated by a Varian linear accelerator, model Clinac 1800, and in accordance with the standards of humane laboratory animal protocols. A 20×20 or 25×25 cm field was used and output factors were checked once a week. Twelve animals were divided into 4 groups each containing 3 animals (Control, XRT, NAC amide+XRT and NAC+XRT). The radiation (XRT) control received whole body irradiation by 6 Gy of 16 MeV electrons. The NAC amide+XRT group received 500 mg/kg/day NAC amide immediately before irradiation and for three days after until sacrifice. The rats were anesthetized and heparinized blood was collected via cardiopuncture. Following sacrifice, liver, lung, brain and spleen were removed and stored at −70° C. until homogenization.
(§2) All experiments were performed using adult Albino SASCO Sprague Dawley female rats weighing about 250 g, which were purchased from Charles River Laboratories Inc. (Portage, Mich.). Twelve rats were shipped in paper crates (4 in each crate). Rats were delivered with a certificate including serological, bacteriological, pathological parasitological information. They were divided into 4 cages (3 rats in each cage) and kept in a temperature controlled (20° C.) room equipped to maintain a 12 h light-dark cycle. Standard rat chow (Purina rat chow) and tap water were supplied in individual glass bottle and given ad libitum. Water was changed daily. Weights of the animal were taken before giving the NAC amide treatment solution and amount of food eaten and water consumed was not measured because NAC amide was given orally but not in the drinking water or food.
(§3) NAC amide was provided by Novetide Ltd (Haifa Bay, Israel) including certificate of analysis and MSDS (lot #40233-64). NAC amide feeding solution was prepared freshly each day right before the administration by weighing 1.25 g NAC amide solid sample (Type HR-120 electronic balance, A&D Company limited, Japan. S/N: 12202464) and adding into 10 ml PBS solution and put on ice. One ml of this solution was administrated (gavaged) per rat orally by using animal feeding biomedical needles and 3 ml BD Luer-Lok Tip syringes. Rats received one-dose total-body 6 Gy/16 MeV x-ray radiation and 3 rats in each group were held in a covered bucket and received radiation at the same time. Each day at the same time, 500 mg/Kg body weight of NAC amide was administrated to the animals.
For MDA levels, 350 μL tissue homogenate was used to react with 100 μL of 500 ppm BHT solution and 550 μL solution of 10% TCA solution, therefore, the total volume here was 1000 μL. After boiling the whole solution, 500 μL was taken out and react with 500 μL TBA and the total volume here was 1000 μL also.
Glutathione (GSH) and Glutathione Disulfide (GSSG) Determination: Cells or tissue samples were homogenized on ice and derivatized with N-(1-pyrenyl)-maleimide (NPM). The derivatized samples were injected onto a 3 μm C18 column (Column Engineering) in a reverse phase HPLC system with a mobile phase of 35% water, 65% acetonitrile containing 1 mL/L of acetic acid and o-phosphoric acid (R. Winters, et al., Anal. Biochem., 227:14-21 (1995) and H. H. Draper et al., Free Rad. Biol. Med., 15:353-363 (1993)). Malondialdehyde (MDA) determinations were made as described in J. Gutteridge, Anal. Biochem., 69: 518-526 (1975).

Sprague Dawley rats [2] = assay: Catalase activities in tissues after 6Gy total-body x-ray radiation; type: in vivo, rat; conditions: 500 mg/kg orally; for Catalase level: individual animals; for Catalase Mean: n = 3
Protocol: as §1, §2, §3
In assay solution, k(enzyme activity)= 1/60*ln(A0/A60)*(Total Volume of reaction/volume of sample) A0—Absorbance at 0 second A60—Absorbance at 60 second In sample, K(specific activity)=k/protein concentration.
Enzyme Activity Assays: Catalase (CAT) activity was determined spectrophotometrically and was expressed in kunits/mg protein and kunits/10^6 cells as described by M. Bradford, Anal. Biochem., 72:248-256 (1976).

[3] = LIVER, listed as AD4, 500 mg/kg

Compound | MDA Mean (Sprague Dawley rats [1]; BRAIN) [nmol/100 mg] | MDA Mean (Sprague Dawley rats [1]; KIDNEY) | MDA Mean (Sprague Dawley rats [1]; LIVER) | MDA Mean (Sprague Dawley rats [1]; LUNG) | lung MDA levels (Sprague Dawley rats [1]) | Catalase Mean (Sprague Dawley rats [2]; LIVER) | Catalase Mean (Sprague Dawley rats [2]; LUNG) | further results
CC(=O)N[C@@H](CS)C(=O)O [NAC, N-acetylcysteine] | 6.15 | 1.65** nmol/100 mg | 5.07**/*** nmol/100 mg | 2.52** nmol/100 mg | did not change the MDA levels significantly | 71.11*** mU/mg | 1.13 mU/mg | MDA level (Sprague Dawley rats [1]; BRAIN, 500 mg/kg): 6.42 nmol/100 mg and 6.69 nmol/100 mg and 5.33 nmol/100 mg; MDA level (Sprague Dawley rats [1]; KIDNEY, 500 mg/kg): 1.76 nmol/100 mg and 1.78 nmol/100 mg and 1.41 nmol/100 mg; MDA level (Sprague Dawley rats [1]; LIVER, 500 mg/kg): 5.1 nmol/100 mg (2×) and 5.02 nmol/100 mg; MDA level (Sprague Dawley rats [1]; LUNG, 500 mg/kg): 2.58 nmol/100 mg and 2.34 nmol/100 mg and 2.63 nmol/100 mg; Catalase level (Sprague Dawley rats [2]; LIVER, 500 mg/kg): 75.22 mU/mg and 69.09 mU/mg and 69.00 mU/mg; Catalase level (Sprague Dawley rats [2]; LUNG, 500 mg/kg): 2.12 mU/mg and 0.79 mU/mg and 0.48 mU/mg
N-acetylcysteine amide [NAC amide] | 5.48 | 1.64** nmol/100 mg | 4.38** nmol/100 mg | 1.53** nmol/100 mg | significantly lowered | 59.28** mU/mg | 0.68** mU/mg | MDA level (Sprague Dawley rats [1]; BRAIN, listed as AD4, 500 mg/kg): 5.79 nmol/100 mg and 5.53 nmol/100 mg and 5.13 nmol/100 mg; MDA level (Sprague Dawley rats [1]; KIDNEY, listed as AD4, 500 mg/kg): 1.96 nmol/100 mg and 1.45 nmol/100 mg; MDA level (Sprague Dawley rats [1]; KIDNEY, listed as AL4, 500 mg/kg): 1.5 nmol/100 mg; MDA level (Sprague Dawley rats [1]; [3]): 4.14 nmol/100 mg and 4.65 nmol/100 mg and 4.36 nmol/100 mg; MDA level (Sprague Dawley rats [1]; LUNG, listed as AD4, 500 mg/kg): 1.72 nmol/100 mg and 1.58 nmol/100 mg and 1.28 nmol/100 mg; Catalase level (Sprague Dawley rats [2]; [3]): 69.63 mU/mg and 57.88 mU/mg and 50.33 mU/mg; Catalase level (Sprague Dawley rats [2]; LUNG, listed as AD4, 500 mg/kg): 1.02 mU/mg and 0.53 mU/mg; Catalase level (Sprague Dawley rats [2]; LUNG, listed as ND4, 500 mg/kg): 0.50 mU/mg
